Numbers after ± are expanded uncertainties.
Conditions: Crystal; for mass density: 298 K, 101.33 kPa, X-ray diffraction; for Normal melting temperature: DTA

Row | SMILES | mass density [kg/m3] | Normal melting temperature [°C]
1 | [Bi+3].[Bi+3].[Se-2].[Se-2].[Se-2] [bismuth(III) selenide] | 7660 ± 30 | 707 ± 6
2 | [I][Bi]([I])[I] [bismuth triiodide] | 5770 ± 20 | 407 ± 4
3 | [Bi+3].[Bi+3].[S-2].[S-2].[S-2] [bismuth(III) sulfide] | 6800 ± 20 | 777 ± 6
